Results on eight compounds are retold here after patent publication US4990703A, “Novel tetrahydronaphthalene and indane derivatives” (Hoffmann-La Roche Inc., priority 1989, dated 1991).

Assay [1] concerns testosterone-stimulated sebum secretion. As to the kind of experiment: Inhibition of sebum production in the rat. Type of assay: in vivo, rat (castrated male). The conditions noted are these: 100 μg/rat p.o., daily for 14 days. On the procedure: (E) The activity of the compounds I on sebum secretion in rats was determined according to the following procedure. Male rats of approximately 50-60 g body weight were castrated at the age of 21-22 days. One week after this operation the rats were washed in a cleansing solution in order to remove sebum which was excreted prior to the test period. Only the carrier materials used were administered to one group of rats. A further group of rats also simultaneously received 100 μg of testosterone propionate in 0.2 ml of sesame oil per rat and day. To a further group of rats there were administered daily per rat 100 μg of testosterone propionate in 0.2 ml of sesame oil subcutaneously and the test compounds in various dosages in 0.2 ml of propylene glycol orally. The rats were thus-treated for 14 days. On the 15th day the sebum from the skin surface and the pelt was removed by immersing the entire body of the test animals in a determined volume of acetone and bathing therein for 2 minutes. An aliquot of the solvent bath was evaporated and the solid residue was determined gravimetrically. The inhibition of the testosterone-stimulated increase in the serum secretion in comparison to the corresponding values from rats treated only with testosterone propionate was used as the measurement for the activity.

Assay [2] concerns squamous metaplasia of the vaginal epithelium. As to the kind of experiment: Antimetaplastic activity in the rat (hormone-induced squamous metaplasia of the vaginal epithelium). Format: in vivo, Female Holtzmann rats. As to conditions: oral; all-trans-retinoic acid = 1; from average effective dosages (Behrens and Karber). An excerpt: (D) The antimetaplastic activity can also be determined in rats according to the following method. Female Holtzmann rats weighing approximately 100 g are ovarectomized under Thiogenal narcosis after an adaptation period of 8 days and are used in the test after a further 14 days. In each case two animals are placed in a cage with free access to feed which contains approximately 2000 IU of vitamin A determined analytically. Prior to the oral administration of the test compound the animals are treated subcutaneously each day on 6 successive days with 1 μg of estradiol benzoate and 250 μg of testosterone propionate dissolved in 0.1 ml of sesame oil. […] 2 days after the oral administration of the test substance the result of the reaction is again read off on the vaginal epithelium. The area method according to Behrens and Karber is employed to calculate the average effective dosages.

Assay [3] concerns keratin-filled utriculi of the rhino mouse. As to the kind of experiment: Anti-keratinizing activity in the rhino mouse. Format: in vivo. An excerpt: (A) The antikeratinizing activity can be determined on the rhino mouse model according to the following procedure. The skin of the rhino mouse is characterized by the presence of keratin-filled utriculi of the epidermis and subcutaneous cysts, both of which are derived from hair follicles. The administration of retinoids leads to a hyperproliferation of the epidermis and of the epithelial lining of the utriculi. The thickening of the epidermis and the reduction in the size of the utriculi lead to a normalization of the altered structure of the epithelial layer. The daily topical application of 0.1 ml/cm^2 skin of the rhino mouse of a 3% acetone solution of an active test compound over a period of 3 weeks or the thrice weekly oral administration in arachis oil over a period of weeks leads to a significant proliferation of the epidermis and a striking reduction of the keratin-filled utriculi.

For assay [4], the system named is chemically-induced breast tumours. In words: Prophylaxis of chemically-induced breast tumours (dimethylbenz(a)anthracene). Type of assay: in vivo, Female Sprague-Dawley rats. As to conditions: 11 weeks. As for the experimental part: (B) The activity in the prevention of chemically-induced breast tumours can be determined according to the following procedure. Female Sprague-Dawley rats are kept under temperature-controlled and light-controlled conditions, with free access to drinking water and feed. At the age of 50 days 15 mg of dimethylbenz(a)anthracene disolved in arachis oil are administered to each rat by means of a probang. The treatment with the test compounds begins 1 day after the administration of the carcinogen. The body weights of the test animals are recorded and the tumours are palpated weekly and measured with a vernier caliper. The volumes are calculated according to the formula [formula] in which D is the larger diameter of the tumour ellipsoid and d is the smaller diameter of the tumour ellipsoid. After 11 weeks the test is terminated and evaluated. In this test there are used in addition to 30 control animals, which receive exclusively normal feed the following two groups of test animals:
1. 33 rats to which are administered daily 30 mg/kg of test compound mixed with the feed.
2. 36 rats to which are administered daily 90 mg/kg of test compound mixed with the feed.

Assay [5] has as its system transplantable chondrosarcoma of the rat. As to the kind of experiment: Activity on transplantable chondrosarcoma of the rat. Type of assay: in vivo, rat (albino rats). As to conditions: five times per week for 24 days. On the procedure:
(C) Furthermore, the activity on tumours can be determined on the transplantable chondrosarcoma of the rat according to the following method. The solid tumour of a donor animal is finely minced and suspended in phosphate buffer/sodium chloride solution. 0.5 ml of the 30% tumour suspension is implanted subcutaneously into albino rats.
The transplanted rats are divided into test groups of in each case 8 animals. The test compounds are suspended in arachis oil and administered orally five times per week for 24 days. The tumours are excised and weighed on day 24. The results are expressed in the quotient C/T which is calculated as follows: [formula]

Turning to `C/C(=C\c1ccc(F)cc1)c1ccc2c(c1)C(C)(C)CCC2(C)C` [a, (E)-6-(p-fluoro-α-methylstyryl)-1,2,3,4-tetrahydro-1,1,4,4-tetramethylnaphthalene], in assay [1], the “Inhibition of testosterone-stimulated sebum secretion” value (“Inhibition” for short) is recorded as 67%. In assay [2], the Relative activity is on record as 0.87. Also, in assay [3] (400 mg/kg p.o.), the “Diameter of the utriculus” value is 117 μm and the “Reduction (of the diameter of the utriculus)” value (“Reduction” for short) is on record as 21%. In assay [4] (30 mg/kg p.o. daily in feed), the “Average number of tumours per rat” value was 47 % of controls, the “Average tumour volume per rat in mm^3 [% of controls]” value is on record as 22 % of controls and the Rats with tumours is reported as 72 % of controls. Also, in assay [4] (90 mg/kg p.o. daily in feed), the “Average number of tumours per rat” value is reported as 42 % of controls, the “Average tumour volume per rat in mm^3 [% of controls]” value is 22 % of controls and the Rats with tumours is recorded as 69 % of controls.
In assay [2], `CC1=C(/C=C/C(C)=C/C=C/C(C)=C/C(=O)O)C(C)(C)CCC1` [all-Trans-retinoic acid, reference compound] displayed a Relative activity of 1.
In the case of `C/C(=C\c1ccc(Br)cc1)c1ccc2c(c1)C(C)(C)CCC2(C)C` [b, (E)6-(p-Bromo-methylstyryl)-1,2,3,4-tetrahydro-1,1,4,4-tetramethylnaphthaene], the “Inhibition” value in assay [1] came out at 65%. This compound also had a Relative activity in assay [2] of 0.77. For the same compound, in assay [5] (120 mg/kg p.o.), the “Quotient C/T of tumour weight of the untreated control animals and of the treated animals” value (“Quotient C/T” below) stood at 1.6. For the same compound, in assay [3] (400 mg/kg p.o.), the “Diameter of the utriculus” value is listed as 131 μm and the “Reduction” value is reported as 19%. Further, in assay [4] (30 mg/kg p.o. daily in feed), the “Average number of tumours per rat” value was 87 % of controls, the “Average tumour volume per rat in mm^3 [% of controls]” value is 90 % of controls and the Rats with tumours is 106 % of controls. Further, in assay [4] (90 mg/kg p.o. daily in feed), the “Average number of tumours per rat” value is reported as 87 % of controls, the “Average tumour volume per rat in mm^3 [% of controls]” value is 43 % of controls and the Rats with tumours is listed as 99 % of controls.
The compound `COc1ccc(/C=C(\C)c2ccc3c(c2)C(C)(C)CCC3(C)C)cc1` [c, 1,2,3 4-tetrahydro-6-[(E)-p-methoxy-α-methylstyryl]-1,1,4,4-tetramethylnaphthalene] showed a Relative activity in assay [2] of 1.04. Besides, the “Quotient C/T” value in assay [5] (40 mg/kg p.o.) is given as 2.0. For the same compound, the “Quotient C/T” value in assay [5] (120 mg/kg p.o.) was found to be 24.0. For the same compound, in assay [3] (133 mg/kg p.o.), the “Diameter of the utriculus” value was found to be 91 μm and the “Reduction” value was 27%. Besides, in assay [3] (400 mg/kg p.o.), the “Diameter of the utriculus” value is 61 μm and the “Reduction” value is reported as 51%. Moreover, in assay [4] (30 mg/kg p.o. daily in feed), the “Average number of tumours per rat” value is on record as 56 % of controls, the “Average tumour volume per rat in mm^3 [% of controls]” value is on record as 78 % of controls and the Rats with tumours is reported as 92 % of controls. In addition, in assay [4] (90 mg/kg p.o. daily in feed), the “Average number of tumours per rat” value is 43 % of controls, the “Average tumour volume per rat in mm^3 [% of controls]” value is 32 % of controls and the Rats with tumours is 85 % of controls.
`C/C(=C\c1ccccc1)c1ccc2c(c1)C(C)(C)CC2(C)C` [d, 1,1,3,3-tetramethyl-5-[(E)-α-methylstyryl]indane]: in assay [3] (133 mg/kg p.o.), the “Diameter of the utriculus” value is reported as 125 μm and the “Reduction” value is on record as 27%.
Turning to `C/C(=C\c1ccc(I)cc1)c1ccc2c(c1)C(C)(C)CCC2(C)C` [e, (E)-6-[p-iodo-α-methylstyryl]-1,2,3,4-tetrahydro-1,1,4,4-tetramethylnaphthalene], in assay [1], the “Inhibition” value amounted to 71%.
Turning to `C/C(=C\c1ccc(Cl)cc1)c1ccc2c(c1)C(C)(C)CCC2(C)C` [f, (E)-6-[p-chloro-α-methylstyryl]-1,2,3,4-tetrahydro-1,1,4,4-tetramethylnaphthalene], the “Quotient C/T” value in assay [5] (120 mg/kg p.o.) was determined as 1.6.
As for `CCCCCCCCc1cc2c(cc1C(C)=Cc1ccccc1)C(C)(C)CCC2(C)C` [g, 1,2,3,4-tetrahydro-1,1,4,4-tetramethyl-6-(α-methylstyryl)-7-octylnaphthalene], the “Inhibition” value in assay [1] amounted to 71%.
